Measured values taken from PubChem BioAssay (NCI).
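Cells were grown in 96-well plates and exposed to each compound for 48 hours at five concentrations; endpoints were interpolated linearly between bracketing concentrations, or set to the highest concentration if not reached. TGI denotes the concentration required for complete inhibition of growth.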

How the values were obtained:
Assay in all cases: NCI tumour cell line growth inhibition, 48 h
DMS 114 small cell lung = system: DMS 114 small cell lung
DLD-1 colon = system: DLD-1 colon
P388/ADR leukemia = system: P388/ADR leukemia
SN12K1 renal = system: SN12K1 renal
HS 578T breast = system: HS 578T breast
HOP-18 NSCLC = system: HOP-18 NSCLC
M19-MEL melanoma = system: M19-MEL melanoma
DMS 273 small cell lung = system: DMS 273 small cell lung
P388 leukemia = system: P388 leukemia
XF 498 CNS = system: XF 498 CNS
MDA-N = system: MDA-N
RXF-631 renal = system: RXF-631 renal

Row | SMILES | TGI (DMS 114 small cell lung) [µM] | TGI (DLD-1 colon) [µM] | TGI (P388/ADR leukemia) [µM] | TGI (SN12K1 renal) [µM] | TGI (HS 578T breast) [µM] | TGI (HOP-18 NSCLC) [µM] | TGI (M19-MEL melanoma) [µM] | TGI (DMS 273 small cell lung) [µM] | TGI (P388 leukemia) [µM] | TGI (XF 498 CNS) [µM] | TGI (MDA-N) [µM] | TGI (RXF-631 renal) [µM]
1 | COc1ccc(S(=O)(=O)N/N=C/C(=O)O)cc1 | 1230 | > 1250 | 721 | > 1250 | 1040 | > 1250 | > 1250 | > 1200 | 787 | > 1080 | > 1200 | 
2 | CC(=O)NC1C(OCc2ccccc2)OC(COC(=O)CCCCCCCCCCNC(=O)c2cccc3c(=O)c4ccccc4[nH]c23)C(O)C1OC(C)C(=O)NC(C)C(=O)NC(CCC(N)=O)C(N)=O (stereo not given) | > 100 | > 100 |  |  |  | > 100 | > 100 | > 100 |  | > 100 |  | 43.8
3 | O=C(O)c1cc(Cl)cc(NC(=O)C(Cl)Cl)c1Cl | > 100 | > 100 |  |  |  | > 100 | > 100 | > 100 |  | > 100 |  | > 100
